Data taken from publication PMC12022980, “Rational Design of PROTAC Linkers Featuring Ferrocene as a Molecular Hinge to Enable Dynamic Conformational Changes” (Journal of the American Chemical Society, 2025).
Where two headings read alike, the source gives them in different places.

Assays:
CRBN = molecular target: T1, CRBN (Homo sapiens, UniProt Q96SW2); parameters: method as in PMID 30826187; conditions: cited from earlier work
T1 construct: endogenous in cells; host or cells: HEK293 (ATCC)

pVHL30 [1] = molecular target: T2, pVHL30 (Homo sapiens, UniProt P40337); parameters: method as in PMID 29018234; conditions: cited from earlier work
T2 construct: endogenous in cells; host or cells: HEK293 (ATCC)
T2 sequence (P40337 whole entry): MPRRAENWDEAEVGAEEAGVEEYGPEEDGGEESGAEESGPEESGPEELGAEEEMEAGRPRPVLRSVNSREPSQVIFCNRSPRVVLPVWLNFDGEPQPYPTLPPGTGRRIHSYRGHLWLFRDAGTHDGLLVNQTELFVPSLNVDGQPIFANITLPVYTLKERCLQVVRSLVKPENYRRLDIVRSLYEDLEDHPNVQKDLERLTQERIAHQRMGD

[2] = molecular target: VCB protein complex (VHL:ElonginC:ElonginB) (Homo sapiens, UniProt P40337); assay: Native gel electrophoresis assay for ternary complex formation; format: binding; conditions: VCB incubated with PROTAC 30 min, room temperature
Sequence of VCB protein complex (VHL:ElonginC:ElonginB) (P40337 54-213 limits assumed, species assumed): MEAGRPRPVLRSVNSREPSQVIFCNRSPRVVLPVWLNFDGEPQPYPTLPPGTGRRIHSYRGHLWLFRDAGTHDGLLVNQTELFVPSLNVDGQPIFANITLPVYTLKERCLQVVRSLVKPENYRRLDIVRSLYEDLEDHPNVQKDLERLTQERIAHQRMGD
Sequence of VCB protein complex (VHL:ElonginC:ElonginB) (Q15369 17-112 partner limits assumed, species assumed): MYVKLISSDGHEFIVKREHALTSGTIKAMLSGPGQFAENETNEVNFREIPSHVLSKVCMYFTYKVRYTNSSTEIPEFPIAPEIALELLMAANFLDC
Sequence of VCB protein complex (VHL:ElonginC:ElonginB) (Q15370 1-104 partner limits assumed, species assumed): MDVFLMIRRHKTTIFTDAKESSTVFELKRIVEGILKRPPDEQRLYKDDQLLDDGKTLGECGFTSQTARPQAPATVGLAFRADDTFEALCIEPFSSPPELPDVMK
From the text: To monitor ternary complex formation mediated by FerroTACs, we leveraged native gel electrophoresis assay, a methodology recently validated to assess VHL dimerization by homo-PROTACs.[41] This in vitro approach serves as a rapid semiqualitative tool to evaluate homo-FerroTAC activity in promoting stable ternary protein complexes. The technique is user-friendly, suitable for higher throughput, and requires lower protein quantities compared to other biophysical methods. The recombinant VCB protein complex (VHL:ElonginC:ElonginB) was incubated with the corresponding Homo-PROTACs (CM11, AS1, cisAS1, AS2) for 30 min at room temperature, followed by non-denaturing gel electrophoresis. Ternary complex formation was indicated by an upward shift in the protein band on the gel, in agreement with the higher molecular weight of the complex. […]
antibody (LI-COR #926-32213, 1:5,000) or IRDye 800CW donkey anti-mouse secondary antibody, (Li-COR […]
room temperature and protected from light. Thereafter, the membranes were washed with TBS-T three times for 10 min, and protein bands were acquired using a ChemiDoc MP imaging system (Bio-Rad). Band quantification was performed using Image Lab software and reported as ratio of each protein band relative to the lane’s loading control. The values obtained were then normalised to vehicle control.
Native Gel Electrophoresis Assay
Gel casting. […]

pVHL30 [3] = molecular target: T2, pVHL30; assay: Western blot VHL degradation in HEK293 cells; format: cell-based
Method: To further elucidate the mode of action of FerroTAC AS2, we explored its dependency on ubiquitination and proteasome activity.
A) Representative immunoblots of VHL protein levels after treatment of
HEK293 cells. Cells were treated with 0.1% EtOH, 0.1 μM or 1 μM of the indicated compounds for 4 and 24 h.
Controls were included at 1 μM for 24 h. Mean values of two biologically independent experiments.
Representative time-course immunoblots of VHL protein levels after treatment of HEK293 cells treated with
Cells were treated with 0.1% EtOH and controls at 1 μM. Mean values of two biologically
independent experiments. Apparent half-life values (t 1/2) were estimated by fitting band intensity against time
using a single-phase exponential decay model. C) Representative immunoblots of VHL protein levels in
neddylation inhibitor MLN4924 (3 μM) and VHL inhibitor VH032 (50 μM). The amount of EtOH (0.1%) and
DMSO (0.5%) is fixed in all samples. Band quantification was performed using ImageJ software and reported
(in black and black) as relative amount as ratio of each protein band relative to the lane’s loading control
(tubulin). VHL/tubulin protein ratios were normalised to the average of the controls (100%).
HEK293 and HCT116 cell lines, purchased from ATCC, were cultured in Dulbecco’s modified Eagle’s medium (DMEM, Gibco) supplemented with 10% fetal bovine serum (FBS, Gibco), L-glutamine (2 mM, Gibco) and 100 μg/mL of penicillin/streptomycin (Gibco). All cell lines were maintained in a humidified incubator at 37 °C and 5% CO2 for no more than 30 passages. Cells were routinely tested for mycoplasma contamination.
Cell Treatment for Immunoblotting
depending on the experimental setup. Cells were treated in fresh medium with the indicated compounds under indicated conditions with a final EtOH or iPrOH concentration of 0.01% (v/v) to 0.1% (v/v) depending on the experimental setup. […]
stored at −80°C. Protein concentration was determined by bicinchoninic acid (BCA) assay (Thermo Fisher […]
Quantitative Immunoblotting […]

T1 sequence (Q96SW2 whole entry): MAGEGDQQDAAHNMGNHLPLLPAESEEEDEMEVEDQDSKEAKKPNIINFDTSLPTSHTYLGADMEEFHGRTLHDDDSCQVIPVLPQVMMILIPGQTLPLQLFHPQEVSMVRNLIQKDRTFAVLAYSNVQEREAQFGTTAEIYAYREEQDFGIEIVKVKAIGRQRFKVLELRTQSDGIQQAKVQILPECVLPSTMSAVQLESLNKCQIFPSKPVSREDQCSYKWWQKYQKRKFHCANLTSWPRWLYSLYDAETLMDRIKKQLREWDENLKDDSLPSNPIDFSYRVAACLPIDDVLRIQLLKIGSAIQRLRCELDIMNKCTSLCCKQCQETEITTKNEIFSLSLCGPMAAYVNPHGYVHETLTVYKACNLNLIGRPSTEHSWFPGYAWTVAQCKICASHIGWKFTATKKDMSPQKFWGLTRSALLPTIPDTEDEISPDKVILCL

Compound | DC50 (CRBN) | t1/2 (pVHL30 degradation half-life) (pVHL30 [1]; 1 μM, calculated from ref 38) | DC50 (pVHL30 [1]; reference value, CM11 only run at 1 μM here, read-out: DC50 ± S.D (pVHL30)) | ternary complex formation, native gel (in words) [2] | Dmax at 1 µM (pVHL30 [3]; HEK293, 4 h, read-out: Dmax at 1 μM (pVHL30)) | Dmax at 1 µM (pVHL30 [3]; HEK293, 24 h, read-out: maximal degradation (Dmax) of pVHL30)
Cc1ncsc1-c1ccc(CNC(=O)[C@@H]2C[C@@H](O)CN2C(=O)[C@@H](NC(=O)CCCCCOCCOCCCCCC(=O)Nc2cccc3c2C(=O)N(C2CCC(=O)NC2=O)C3=O)C(C)(C)C)cc1 (stereo partly drawn) [14a] | 200 nM | – | – | – | – | –
Cc1ncsc1-c1ccc(CNC(=O)[C@@H]2C[C@@H](O)CN2C(=O)[C@@H](NC(=O)COCCOCCOCCOCCOCCOCC(=O)N[C@H](C(=O)N2C[C@H](O)C[C@H]2C(=O)NCc2ccc(-c3scnc3C)cc2)C(C)(C)C)C(C)(C)C)cc1 [CM11] | – | 85.1 min | < 100 nM | induced formation of an up-shifted protein band | 98% | 100%
